Laboratory results published in patent US20080051387A1, “TETRAHYDROPYRIDO[3,4-D]PYRIMIDINES AND RELATED ANALOGUES” (priority 2006, published 2008).

Target: T1, chimeric human H3 receptor (Homo sapiens, UniProt Q9Y5N1)
T1 construct: rat Galpha-i2 (Gnai2, rat); made in house; host or cells: Sf9 insect cells (baculovirus); P2 membranes
Assay: Chimeric human H3 receptor screening GTP binding assay (inhibition of histamine-stimulated GTP-gamma35S binding, Example 8)
Type: biochemical
Conditions: 1 h; assay described in Example 8; symbol "!" in column headed Ki; read-out: Ki ("!": percent inhibition of agonist-induced GTP-gammaS binding to H3)
In short: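 Compound tested at 4 μM against 1 μM histamine stimulation; 125 pM GTP-gamma35S binding measured by filtration and scintillation after 60 min at room temperature. Membranes from Sf9 cells expressing chimeric human H3 plus G-protein subunits, in Tris pH 7.4/NaCl/MgCl2/GDP buffer; values are % inhibition after nonspecific subtraction.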

T1 sequence (Q9Y5N1 with tags, fused parts or gaps): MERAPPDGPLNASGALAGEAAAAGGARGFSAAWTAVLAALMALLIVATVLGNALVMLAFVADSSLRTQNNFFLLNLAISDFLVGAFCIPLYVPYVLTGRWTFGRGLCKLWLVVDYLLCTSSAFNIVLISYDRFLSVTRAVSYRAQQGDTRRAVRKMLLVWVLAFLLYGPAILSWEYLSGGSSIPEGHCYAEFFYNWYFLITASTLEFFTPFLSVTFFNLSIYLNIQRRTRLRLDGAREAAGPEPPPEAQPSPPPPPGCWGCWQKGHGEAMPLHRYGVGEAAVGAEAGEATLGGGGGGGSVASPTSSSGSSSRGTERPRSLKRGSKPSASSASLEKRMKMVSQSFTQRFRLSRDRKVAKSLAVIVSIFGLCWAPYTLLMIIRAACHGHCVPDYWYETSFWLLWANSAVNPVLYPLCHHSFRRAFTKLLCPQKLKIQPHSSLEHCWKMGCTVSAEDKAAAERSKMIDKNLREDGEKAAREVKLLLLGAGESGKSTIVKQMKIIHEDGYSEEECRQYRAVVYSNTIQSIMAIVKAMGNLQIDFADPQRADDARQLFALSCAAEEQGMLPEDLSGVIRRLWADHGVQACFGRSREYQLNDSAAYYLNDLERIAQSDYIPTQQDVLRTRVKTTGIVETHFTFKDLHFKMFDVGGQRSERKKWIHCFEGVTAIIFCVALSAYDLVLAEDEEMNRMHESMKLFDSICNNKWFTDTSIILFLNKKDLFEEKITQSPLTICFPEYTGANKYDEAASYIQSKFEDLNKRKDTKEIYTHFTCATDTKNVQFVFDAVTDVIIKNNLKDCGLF

| Compound | inhibition at 4 µM |
| --- | --- |
| O=C(c1cnc2ccccc2c1)N1CCc2cnc(N3CCN(C4CCC4)CC3)nc2CC1 [Compound 482, 2-(4-cyclobutylpiperazin-1-yl)-7-(quinolin-3-ylcarbonyl)-6,7,8,9-tetrahydro-5H-pyrimido[4,5-d]azepine] | ≥ 90% |
| O=C(/C=C/c1cccc(C(F)(F)F)c1)N1CCc2cnc(N3CCN(C4CCC4)CC3)nc2CC1 [Compound 555, 2-(4-cyclobutylpiperazin-1-yl)-7-{(2E)-3-[3-(trifluoromethyl)phenyl]prop-2-enoyl}-6,7,8,9-tetrahydro-5H-pyrimido[4,5-d]azepine] | ≥ 90% |
| O=C(Cc1ccc(OCc2ccccc2)cc1)N1CCc2cnc(N3CCN(C4CCC4)CC3)nc2CC1 [Compound 520, 7-{[4-(benzyloxy)phenyl]acetyl}-2-(4-cyclobutylpiperazin-1-yl)-6,7,8,9-tetrahydro-5H-pyrimido[4,5-d]azepine] | ≥ 90% |
| O=C(/C=C/c1ccc(Cl)c(Cl)c1)N1CCc2cnc(N3CCN(C4CCC4)CC3)nc2CC1 [Compound 551, 2-(4-cyclobutylpiperazin-1-yl)-7-[(2E)-3-(3,4-dichlorophenyl)prop-2-enoyl]-6,7,8,9-tetrahydro-5H-pyrimido[4,5-d]azepine] | ≥ 90% |
| Cc1nc(-c2ccc(C(F)(F)F)cc2)sc1C(=O)N1CCc2cnc(N3CCN(C4CCC4)CC3)nc2CC1 [Compound 524, 2-(4-cyclobutylpiperazin-1-yl)-7-({4-methyl-2-[4-(trifluoromethyl)phenyl]-1,3-thiazol-5-yl}carbonyl)-6,7,8,9-tetrahydro-5H-pyrimido[4,5-d]azepine] | ≥ 90% |

Same assay, conditions: 1 h; assay of Example 8; symbol "!" in column headed Ki; read-out: percent inhibition of agonist-induced GTP-gammaS binding to H3

| Compound | inhibition at 4 µM |
| --- | --- |
| O=C(Cc1c(Cl)ccc(Cl)c1Cl)N1CCc2cnc(N3CCN(C4CCC4)CC3)nc2CC1 [Compound 300, 2-(4-cyclobutylpiperazin-1-yl)-7-[(2,3,6-trichlorophenyl)acetyl]-6,7,8,9-tetrahydro-5H-pyrimido[4,5-d]azepine] | ≥ 90% |
| CC(Oc1ccccc1Cl)C(=O)N1CCc2cnc(N3CCN(C4CCC4)CC3)nc2CC1 (stereo not shown) [Compound 344, 7-[2-(2-chlorophenoxy)propanoyl]-2-(4-cyclobutylpiperazin-1-yl)-6,7,8,9-tetrahydro-5H-pyrimido[4,5-d]azepine] | ≥ 90% |
| O=C(COc1ccccc1Cl)N1CCc2cnc(N3CCN(C4CCC4)CC3)nc2CC1 [Compound 320, 7-[(2-chlorophenoxy)acetyl]-2-(4-cyclobutylpiperazin-1-yl)-6,7,8,9-tetrahydro-5H-pyrimido[4,5-d]azepine] | ≥ 90% |

Same assay, conditions: symbol ! in Ki; test compound 4 μM, 1 μM histamine; read-out: percent inhibition of agonist-induced GTP-gammaS binding to H3

| Compound | inhibition at 4 µM |
| --- | --- |
| Cc1ncccc1C(=O)N1CCc2c(ncnc2N2CCN(C3CCC3)CC2)C1 [Compound 38, 4-(4-cyclobutylpiperazin-1-yl)-7-[(2-methylpyridin-3-yl)carbonyl]-5,6,7,8-tetrahydropyrido[3,4-d]pyrimidine] | ≥ 90% |
| O=C(C1CCC1)N1CCc2c(ncnc2N2CCN(C3CCC3)CC2)C1 [Compound 53, 7-(cyclobutylcarbonyl)-4-(4-cyclobutylpiperazin-1-yl)-5,6,7,8-tetrahydropyrido[3,4-d]pyrimidine] | ≥ 90% |
| COc1cccc(C(C)N2CCc3c(ncnc3N3CCN(C4CCC4)CC3)C2)c1OC (stereo not shown) [Compound 131, 4-(4-cyclobutylpiperazin-1-yl)-7-[1-(2,3-dimethoxyphenyl)ethyl]-5,6,7,8-tetrahydropyrido[3,4-d]pyrimidine] | ≥ 90% |
| Clc1ccccc1CN1CCc2c(ncnc2N2CCN(C3CCC3)CC2)C1 [Compound 98, 7-(2-chlorobenzyl)-4-(4-cyclobutylpiperazin-1-yl)-5,6,7,8-tetrahydropyrido[3,4-d]pyrimidine] | ≥ 90% |
| Cc1ccc(C(=O)N2CCc3c(ncnc3N3CCN(C4CCC4)CC3)C2)cc1 [Compound 24, 4-(4-cyclobutylpiperazin-1-yl)-7-(4-methylbenzoyl)-5,6,7,8-tetrahydropyrido[3,4-d]pyrimidine] | ≥ 90% |
